Test results published in patent publication US20230233569A1 (Revolution Medicines, Inc., priority 2020, published 2023).
Like-named read-outs stand apart in the source and are kept apart here.

Experiments:
[1] = ester bond, 18-membered ring, EDCI/HOBt/DIPEA, DCM, 25.0 °C
[2] = test system: P70S6K (Thr389) phosphorylation (mTORC1) in MDA-MB-468 cells; test: Cell based AlphaLISA assay, mTOR kinase cellular assay: inhibition of p-P70S6K (T389) in MDA-MB-468 cells
Method in brief: (§1)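 MDA-MB-468 cells treated with compound at 0.017-1,000 nM for two to four hours at 37° C, then lysed. Phospho-AKT1/2/3 S473, 4EBP1 T37/46 and P70S6K T389 quantified by AlphaLISA SureFire Ultra in duplicate; IC50 from normalized regression with control-based normalization.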

[3] = test system: 4EBP1 (Thr37/46) phosphorylation (mTORC1) in MDA-MB-468 cells; test: Cell based AlphaLISA assay, mTOR kinase cellular assay: inhibition of p-4E-BP1 (T37/46) in MDA-MB-468 cells
Method in brief: as §1

[4] = test system: AKT1/2/3 (Ser473) phosphorylation (mTORC2) in MDA-MB-468 cells; test: Cell based AlphaLISA assay, mTOR kinase cellular assay: inhibition of p-Akt (S473) in MDA-MB-468 cells
Method in brief: as §1

[5] = Homo sapiens, read-out: pIC50 for Inhibition of mTORC1 and mTORC2 Substarte Phosphorylation p-P70S6K-(T389) (converted)
[6] = Homo sapiens, read-out: pIC50 for Inhibition of mTORC1 and mTORC2 Substarte Phosphorylation p-4E-BP1-(T37/46) (converted)
[7] = Homo sapiens, read-out: pIC50 for Inhibition of mTORC1 and mTORC2 Substarte Phosphorylation p-AKT1/2/3-(S473) (converted)

SMILES	IC50 [2, 5] [nM]	IC50 [3, 6] [nM]	IC50 [4, 7] [nM]	also measured
CCn1c(-c2ccccc2COC)c2c3cc(ccc31)-c1cc(cc([N+](=O)[O-])c1)C[C@H](NC(=O)OC(C)(C)C)C(=O)N1CCC[C@H](N1)C(=O)OCC(C)(C)C2	–	–	–	ring closure, isolated yield ([1]; from CCn1c(-c2ccccc2COC)c(CC(C)(C)CO)c2cc(-c3cc(C[C@H](NC(=O)OC(C)(C)C)C(=O)N4CCC[C@@H](C(=O)O)N4)cc([N+](=O)[O-])c3)ccc21, 6.4 mM): 73%
CC(C)[Si](Oc1cc2cc(c1)-c1ccc3[nH]c(I)c(c3c1)CC(C)(C)COC(=O)[C@@H]1CCCN(N1)C(=O)[C@@H](NC(=O)OC(C)(C)C)C2)(C(C)C)C(C)C	–	–	–	ring closure, isolated yield ([1]; from CC(C)[Si](Oc1cc(C[C@H](NC(=O)OC(C)(C)C)C(=O)N2CCC[C@@H](C(=O)O)N2)cc(-c2ccc3[nH]c(I)c(CC(C)(C)CO)c3c2)c1)(C(C)C)C(C)C, 22.8 mM, 16.0 h): 50%
CC(C)n1nc(-c2ccc3oc(N)nc3c2)c2c(N)ncnc21 [MLN-128]	–	–	–	IC50 ([2]; two to four hours at 37° C., AlphaLisa SureFire Ultra, read-out: IC50 for Inhibition of mTORC1 and mTORC2 Substarte Phosphorylation, p-P70S6K-(T389)): 1.4 nM; IC50 ([3]; two to four hours at 37° C., AlphaLisa SureFire Ultra, read-out: IC50 for Inhibition of mTORC1 and mTORC2 Substarte Phosphorylation, p-4E-BP1-(T37/46)): 16 nM; IC50 ([4]; two to four hours at 37° C., AlphaLisa SureFire Ultra, read-out: IC50 for Inhibition of mTORC1 and mTORC2 Substarte Phosphorylation, p-AKT1/2/3-(S473)): 3.7 nM
CO[C@H]1C[C@@H]2CC[C@@H](C)[C@@](O)(O2)C(=O)C(=O)N2CCCC[C@H]2C(=O)O[C@H]([C@H](C)C[C@@H]2CC[C@@H](OC(=O)NCCOCCOCCOCCOCCC(=O)NCc3cnc(N4CCN(c5ncc(C(=O)N6CCc7cc(Cn8nc(-c9ccc%10oc(N)nc%10c9)c9c(N)ncnc98)ccc7C6)cn5)CC4)nc3)[C@H](OC)C2)C[C@@H](OC)[C@H](C)/C=C(\C)[C@@H](O)[C@@H](OC)C(=O)[C@H](C)C[C@H](C)/C=C/C=C/C=C/1C [Example 50]	≤ 1	≤ 3.16	31.6 to 1000	–
CO[C@H]1C[C@@H]2CC[C@@H](C)[C@@](O)(O2)C(=O)C(=O)N2CCCC[C@H]2C(=O)O[C@H]([C@H](C)C[C@@H]2CC[C@@H](OC(=O)N3CCc4nc(N5CCN(c6ncc(C(=O)NCCOCCOCCOCCOCCC(=O)NCCCCn7nc(-c8cnc9[nH]ccc9c8)c8c(N)ncnc87)cn6)CC5)ncc4C3)[C@H](OC)C2)CC(=O)[C@H](C)/C=C(\C)[C@@H](O)[C@@H](OC)C(=O)[C@H](C)C[C@H](C)/C=C/C=C/C=C/1C [Example 35]	≤ 1	≤ 3.16	3.16 to 31.6	–
CO[C@H]1C[C@@H]2CC[C@@H](C)[C@@](O)(O2)C(=O)C(=O)N2CCCC[C@H]2C(=O)O[C@H]([C@H](C)C[C@@H]2CC[C@@H](OC(=O)NCc3cnc(N4CCN(C(=O)CCOCCN5CCN(c6ncc(C(=O)NCCOCCC(=O)NCCCCn7nc(-c8cnc9[nH]ccc9c8)c8c(N)ncnc87)cn6)CC5)CC4)nc3)[C@H](OC)C2)CC(=O)[C@H](C)/C=C(\C)[C@@H](O)[C@@H](OC)C(=O)[C@H](C)C[C@H](C)/C=C/C=C/C=C/1C [Example 66]	10 to 1000	31.6 to 1000	3.16 to 31.6	–
CO[C@H]1C[C@@H]2CC[C@@H](C)[C@@](O)(O2)C(=O)C(=O)N2CCCC[C@H]2C(=O)O[C@H]([C@H](C)C[C@@H]2CC[C@@H](OC(=O)NCCOCCOCCOCCOCCC(=O)NCc3cnc(N4CCN(c5ncc(C(=O)N6CCc7cc(Cn8nc(-c9ccc%10oc(N)nc%10c9)c9c(N)ncnc98)ccc7C6)cn5)CC4)nc3)[C@H](OC)C2)C[C@@H](O)[C@H](C)/C=C(\C)[C@@H](O)[C@@H](OC)C(=O)[C@H](C)C[C@H](C)/C=C/C=C/C=C/1C [Example 49]	≤ 1	≤ 3.16	3.16 to 31.6	–
CO[C@H]1C[C@@H]2CC[C@@H](C)[C@@](O)(O2)C(=O)C(=O)N2CCCC[C@H]2C(=O)O[C@H]([C@H](C)C[C@@H]2CC[C@@H](OC(=O)NCCOCCOCCOCCOCCC(=O)NCCOCCOCCOCCOCCC(=O)N3CCc4cc(Cn5nc(-c6ccc7oc(N)nc7c6)c6c(N)ncnc65)ccc4C3)[C@H](OC)C2)CC(=O)[C@H](C)/C=C(\C)[C@@H](O)[C@@H](OC)C(=O)[C@H](C)C[C@H](C)/C=C/C=C/C=C/1C [Example 15]	≤ 1	≤ 3.16	3.16 to 31.6	–
CO[C@H]1C[C@@H]2CC[C@@H](C)[C@@](O)(O2)C(=O)C(=O)N2CCCC[C@H]2C(=O)O[C@H]([C@H](C)C[C@@H]2CC[C@@H](OC(=O)NCCOCCOCCOCCOCCC(=O)NCCOCCOCCOCCOCCC(=O)N3CCc4cc(Cn5nc(-c6ccc7oc(N)nc7c6)c6c(N)ncnc65)ccc4C3)[C@H](OC)C2)C[C@@H](O)[C@H](C)/C=C(\C)[C@@H](O)[C@@H](OC)C(=O)[C@H](C)C[C@H](C)/C=C/C=C/C=C/1C [Example 16]	≤ 1	≤ 3.16	≤ 3.16	–
CO[C@H]1C[C@@H]2CC[C@@H](C)[C@@](O)(O2)C(=O)C(=O)N2CCCC[C@H]2C(=O)O[C@H]([C@H](C)C[C@@H]2CC[C@@H](OC(=O)NCCOCCOCCOCCOCCOCCOCCOCCOCC(=O)N3CCc4cc(Cn5nc(-c6ccc7oc(N)nc7c6)c6c(N)ncnc65)ccc4C3)[C@H](OC)C2)CC(=O)[C@H](C)/C=C(\C)[C@@H](O)[C@@H](OC)C(=O)[C@H](C)C[C@H](C)/C=C/C=C/C=C/1C [Example 71]	≤ 1	≤ 3.16	3.16 to 31.6	–
CO[C@H]1C[C@@H]2CC[C@@H](C)[C@@](O)(O2)C(=O)C(=O)N2CCCC[C@H]2C(=O)O[C@H]([C@H](C)C[C@@H]2CC[C@@H](OC(=O)NCCOCCOCCOCCOCCOCCOCCOCCOCCC(=O)N3CCC(n4nc(-c5ccc6oc(N)nc6c5)c5c(N)ncnc54)CC3)[C@H](OC)C2)CC(=O)[C@H](C)/C=C(\C)[C@@H](O)[C@@H](OC)C(=O)[C@H](C)C[C@H](C)/C=C/C=C/C=C/1C [Example 19]	≤ 1	≤ 3.16	≤ 3.16	–
CO[C@H]1C[C@@H]2CC[C@@H](C)[C@@](O)(O2)C(=O)C(=O)N2CCCC[C@H]2C(=O)O[C@H]([C@H](C)C[C@@H]2CC[C@@H](OC(=O)NCCOCCOCCOCCOCCOCCOCCC(=O)N3CCC(N4CCC(C(=O)N5CCc6cc(Cn7nc(-c8ccc9oc(N)nc9c8)c8c(N)ncnc87)ccc6C5)CC4)CC3)[C@H](OC)C2)C[C@@H](O)[C@H](C)/C=C(\C)[C@@H](O)[C@@H](OC)C(=O)[C@H](C)C[C@H](C)/C=C/C=C/C=C/1C [Example 113]	≤ 1	≤ 3.16	3.16 to 31.6	–
CO[C@H]1C[C@@H]2CC[C@@H](C)[C@@](O)(O2)C(=O)C(=O)N2CCCC[C@H]2C(=O)O[C@H]([C@H](C)C[C@@H]2CC[C@@H](OC(=O)NCCOCCOCCOCCOCCOCCOCCOCCOCCC(=O)N3CCc4cc(Cn5nc(-c6ccc7oc(N)nc7c6)c6c(N)ncnc65)ccc4C3)[C@H](OC)C2)CC(=O)[C@H](C)/C=C(\C)[C@@H](O)[C@@H](OC)C(=O)[C@H](C)C[C@H](C)/C=C/C=C/C=C/1C [Example 2]	≤ 1	≤ 3.16	3.16 to 31.6	–
CO[C@H]1C[C@@H]2CC[C@@H](C)[C@@](O)(O2)C(=O)C(=O)N2CCCC[C@H]2C(=O)O[C@H]([C@H](C)C[C@@H]2CC[C@@H](O)[C@H](OC)C2)CC(=O)[C@H](C)/C=C(\C)[C@@H](O)[C@@H](OC)C(=O)[C@H](C)C[C@H](C)/C=C/C=C/C=C/1C [Rapamycin, rapamycin, reference compound]	–	–	–	IC50 ([2]; Homo sapiens, 4 h, two to four hours at 37° C., AlphaLisa SureFire Ultra, read-out: IC50 for Inhibition of mTORC1 and mTORC2 Substarte Phosphorylation, p-P70S6K-(T389)): 0.2 nM; IC50 ([3]; Homo sapiens, 4 h, two to four hours at 37° C., AlphaLisa SureFire Ultra, read-out: IC50 for Inhibition of mTORC1 and mTORC2 Substarte Phosphorylation, p-4E-BP1-(T37/46)): > 1000 nM; IC50 ([4]; Homo sapiens, 4 h, two to four hours at 37° C., AlphaLisa SureFire Ultra, read-out: IC50 for Inhibition of mTORC1 and mTORC2 Substarte Phosphorylation, p-AKT1/2/3-(S473)): > 1000 nM
CO[C@H]1C[C@@H]2CC[C@@H](C)[C@@](O)(O2)C(=O)C(=O)N2CCCC[C@H]2C(=O)O[C@H]([C@H](C)C[C@@H]2CC[C@@H](OC(=O)NCCOCCOCCOCCOCCOCCC(=O)NCCOCCOCCOCCOCCOCCC(=O)N3CCc4cc(Cn5nc(-c6cnc7[nH]ccc7c6)c6c(N)ncnc65)ccc4C3)[C@H](OC)C2)CC(=O)[C@H](C)/C=C(\C)[C@@H](O)[C@@H](OC)C(=O)[C@H](C)C[C@H](C)/C=C/C=C/C=C/1C [Example 21]	≤ 1	≤ 3.16	31.6 to 1000	–
